From patent publication US20230104936A1, “TRPML MODULATORS” (Casma Therapeutics, Inc., priority 2019, published 2023)

Tested on: TFEB
Experiment: TFEB nuclear translocation assay, HeLa wt cells
Type: cell-based
Conditions: 2 hrs compound treatment, Table 1 does not say HeLa wt or TRPML1 KO
Summary of the method: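 HeLa wt, 2 hr compound, 37° C; 4% PFA fix; anti-TFEB (rabbit, 1:200, overnight 4° C) + Alexa 488 secondary, Hoechst. Imaged ×20, 4 fields/well. Readout: nuclear/ring Alexa 488 intensity ratio; AC50.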

Row | Compound | AC50 (Homo sapiens, HeLa, 2 h) | AC50
1 | Cc1ccc(S(=O)(=O)Nc2cccc(F)c2N2CCC(CN3C[C@@H](C)O[C@@H](C)C3)CC2)cc1 [Compound A-771, N-[2-(4-{[(2R,6S)-2,6-dimethylmorpholin-4-yl]methyl}piperidin-1-yl)-3-fluorophenyl]-4-methylbenzene-1-sulfonamide] | ≤ 2000 nM | 
2 | C[C@@H]1CN(CC2CCN(c3c(F)cccc3[C@@H](C)S(=O)(=O)c3ccc(S(=N)(=O)N(C)C)cc3)CC2)C[C@H](C)O1 (single isomer, unassigned) [Compound A-903] |  | ≥ 10000 nM
3 | CC(c1cccc(F)c1N1[C@@H]2CCC[C@H]1CC2)S(=O)(=O)c1ccc(S(=N)(=O)N(C)C)cc1 (single isomer, unassigned) [Compound A-988, 4-((1-(2-(8-azabicyclo[3.2.1]octan-8-yl)-3-fluorophenyl)ethyl)sulfonyl)-N,N-dimethylbenzenesulfonimidamide] | ≥ 10000 nM | 
4 | CNCC1(c2ccc(F)cc2F)CCN(c2ccccc2NS(=O)(=O)c2ccc(S(=O)(=O)N(C)C)cc2)CC1 [Compound A-218, N4-{2-[4-(2,4-difluorophenyl)-4-[(methylamino)methyl]piperidin-1-yl]phenyl}-N1,N1-dimethylbenzene-1,4-disulfonamide] | ≤ 2000 nM | 
5 | CC(c1cccc(F)c1N1CCC(CN2CCC(F)(F)C2)CC1)S(=O)(=O)c1ccc(S(=O)(=O)N(C)C)cc1 (stereo not drawn) [Compound A-802, 4-[1-(2-{4-[(3,3-difluoropyrrolidin-1-yl)methyl]piperidin-1-yl}-3-fluorophenyl)ethanesulfonyl]-N,N-dimethylbenzene-1-sulfonamide] | ≤ 2000 nM | 
6 | CN(C)S(=O)(=O)c1ccc(S(=O)(=O)Nc2cccc(F)c2N2CCC(N3CCC4(CCOC4)C3)CC2)cc1 (single isomer, unassigned) [Compound A-909, N1-(2-(4-(2-oxa-7-azaspiro[4.4]nonan-7-yl)piperidin-1-yl)-3-fluorophenyl)-N4,N4-dimethylbenzene-1,4-disulfonamide] | 2010 to 8000 nM | 
7 | CN(C)S(=O)(=O)c1ccc(S(=O)(=O)Nc2cccnc2N2CCC(c3ccc(Cl)cc3F)CC2)cc1 [Compound A-109, N4-{2-[4-(4-chloro-2-fluorophenyl)piperidin-1-yl]pyridin-3-yl}-N1,N1-dimethylbenzene-1,4-disulfonamide] | ≤ 2000 nM | 
8 | COC1(CN2C[C@@H](C)O[C@@H](C)C2)CCN(c2c(F)cccc2NS(=O)(=O)c2ccc(S(=O)(=O)N(C)C)cc2)CC1 [Compound A-786, N4-[2-(4-[(2R,6S)-2,6-dimethylmorpholin-4-yl]methyl-4-methoxypiperidin-1-yl)-3-fluorophenyl]-N1,N1-dimethylbenzene-1,4-disulfonamide] | ≤ 2000 nM | 
9 | Cc1nn(C)c(C2=CCN(c3ccc(Cl)cc3F)CC2)c1NS(=O)(=O)c1ccc(S(=O)(=O)N(C)C)cc1 [Compound A-29, N1-(5-(1-(4-chloro-2-fluorophenyl)-1,2,3,6-tetrahydropyridin-4-yl)-1,3-dimethyl-1H-pyrazol-4-yl)-N4,N4-dimethylbenzene-1,4-disulfonamide] | ≥ 10000 nM | 
10 | COc1cc(S(=O)(=O)Nc2ccccc2N2CCN(c3ccc(Cl)cc3F)CC2)ccn1 [Compound A-34, N-{2-[4-(4-chloro-2-fluorophenyl)piperazin-1-yl]phenyl}-2-methoxypyridine-4-sulfonamide] | ≤ 2000 nM | 
11 | CC(c1cccc(F)c1N1CCCCC1)S(=O)(=O)c1ccc(S(=N)(=O)C(F)F)cc1 (single isomer, unassigned) [Compound A-940, (difluoromethyl)(4-((1-(3-fluoro-2-(piperidin-1-yl)phenyl)ethyl)sulfonyl)phenyl)(imino)-l6-sulfanone] |  | ≤ 2000 nM
12 | C[C@H]1CN(CC2CCN(c3c(F)cccc3NS(=O)(=O)c3ccc(S(=O)(=O)N(C)C)cc3)CC2)[C@@H](C)CO1 [Compound A-862, N4-[2-(4-{[(2S,5S)-2,5-dimethylmorpholin-4-yl]methyl}piperidin-1-yl)-3-fluorophenyl]-N1,N1-dimethylbenzene-1,4-disulfonamide] | ≤ 2000 nM | 
13 | Cc1nn(S(=O)(=O)c2ccc(S(=O)(=O)N(C)C)cc2)cc1C1CCN(c2ccc(Cl)cc2F)CC1 [Compound A-38, 4-({4-[1-(4-chloro-2-fluorophenyl)piperidin-4-yl]-3-methyl-1H-pyrazol-1-yl}sulfonyl)-N,N-dimethylbenzene-1-sulfonamide] | ≤ 2000 nM | 
14 | CN(C)S(=O)(=O)c1ccc(S(=O)(=O)Nc2ccccc2N2CCN(CC3CCOC3)CC2)cc1 (stereo not drawn) [Compound A-509, N1,N1-dimethyl-N4-(2-{4-[(oxolan-3-yl)methyl]piperazin-1-yl}phenyl)benzene-1,4-disulfonamide] | 2010 to 8000 nM | 
15 | CN1CC2(CCN(c3ccccc3NS(=O)(=O)c3ccc(S(=O)(=O)N(C)C)cc3)CC2)c2cccnc21 [Compound A-331, N1,N1-dimethyl-N4-(2-{1′-methyl-1′,2′-dihydrospiro[piperidine-4,3′-pyrrolo[2,3-b]pyridin]-1-yl}phenyl)benzene-1,4-disulfonamide] | ≤ 2000 nM | 
16 | CN(C)S(=O)(=O)c1ccc(S(=O)(=O)Nc2ccccc2[C@H]2CC[C@H](c3ccc(Cl)cc3F)CC2)cc1 [Compound A-70, N1-(2-(4-(4-chloro-2-fluorophenyl)cyclohexyl)phenyl)-N4,N4-dimethylbenzene-1,4-disulfonamide] | ≤ 2000 nM | 
17 | Cc1ccc(N2CCOCC2)c(NS(=O)(=O)c2ccc(S(=O)(=O)N(C)C)cc2)c1 [Compound A-757, N1,N1-dimethyl-N4-[5-methyl-2-(morpholin-4-yl)phenyl]benzene-1,4-disulfonamide] | ≤ 2000 nM | 

Row | Compound | AC50 (Homo sapiens, HeLa, 2 h) | AC50
18 | CN(C)S(=O)(=O)c1ccc(S(=O)(=O)Cc2ccccc2N2CCN(C(=O)OCc3ccccc3)CC2)cc1 [Compound A-598, benzyl 4-(2-{[4-(dimethylsulfamoyl)benzenesulfonyl]methyl}phenyl)piperazine-1-carboxylate] | ≤ 2000 nM | 
19 | COCC1(C)CCN(c2ccccc2NS(=O)(=O)c2cccc(C(C)(C)OC)c2)CC1 [Compound A-633, N-{2-[4-(methoxymethyl)-4-methylpiperidin-1-yl]phenyl}-3-(2-methoxypropan-2-yl)benzene-1-sulfonamide] | 2010 to 8000 nM | 
20 | COCC1(C)CCN(c2ccccc2NS(=O)(=O)c2ccc(S(=O)(=O)N3CCC3)cc2)CC1 [Compound A-736, 4-(azetidine-1-sulfonyl)-N-{2-[4-(methoxymethyl)-4-methylpiperidin-1-yl]phenyl}benzene-1-sulfonamide] | ≤ 2000 nM | 
21 | CS(=O)(=O)c1ccc(S(=O)(=O)Nc2ccccc2N2CCC(O)(c3ccc(Cl)cc3F)CC2)cc1 [Compound A-142, N-{2-[4-(4-chloro-2-fluorophenyl)-4-hydroxypiperidin-1-yl]phenyl}-4-methanesulfonylbenzene-1-sulfonamide] | 2010 to 8000 nM | 
22 | CC(c1cccc(F)c1N1CCC(CN2C[C@@H](C)O[C@@H](C)C2)CC1)S(=O)(=O)c1ccc2c(c1)CCC2 (single isomer, unassigned) [Compound A-828] | ≤ 2000 nM | 
23 | CN(C)S(=O)(=O)c1ccc(S(=O)(=O)Nc2ccccc2N2CCN(C3CCCCC3)CC2)cc1 [Compound A-53, N4-[2-(4-cyclohexylpiperazin-1-yl)phenyl]-N1,N1-dimethylbenzene-1,4-disulfonamide] | 2010 to 8000 nM | 
24 | COCC1(C)CCN(c2ccccc2NS(=O)(=O)c2ccc(S(C)(=O)=O)cc2)CC1 [Compound A-697, 4-methanesulfonyl-N-{2-[4-(methoxymethyl)-4-methylpiperidin-1-yl]phenyl}benzene-1-sulfonamide] | 2010 to 8000 nM | 
25 | CC1(C)CC2(CCN(c3ccccc3NS(=O)(=O)CCc3ccccc3)CC2)CO1 [Compound A-743, N-(2-{3,3-dimethyl-2-oxa-8-azaspiro[4.5]decan-8-yl}phenyl)-2-phenylethane-1-sulfonamide] | ≥ 10000 nM | 
26 | CN(C)S(=O)(=O)c1ccc(S(=O)(=O)Nc2ccccc2N2CCN(C(=O)C3CC34CC4)CC2)cc1 (stereo not drawn) [Compound A-462, N1,N1-dimethyl-N4-[2-(4-{spiro[2.2]pentane-1-carbonyl}piperazin-1-yl)phenyl]benzene-1,4-disulfonamide] | 2010 to 8000 nM | 
27 | CC(C1CCN(c2c(F)cccc2NS(=O)(=O)c2ccc(S(=N)(=O)N(C)C)cc2)CC1)N1C[C@@H](C)O[C@@H](C)C1 (single isomer, unassigned) [Compound A-871B] |  | ≤ 2000 nM
28 | O=S(=O)(Nc1ccccc1N1CCC(c2ccc(F)cc2F)CC1)c1ccc(C(F)F)cn1 [Compound A-137, 5-(difluoromethyl)-N-{2-[4-(2,4-difluorophenyl)piperidin-1-yl]phenyl}pyridine-2-sulfonamide] | 2010 to 8000 nM | 
29 | C[C@H](c1cccc(F)c1N1CCC(C2(N3CCOCC3)CC2)CC1)S(=O)(=O)c1ccc(S(=N)(=O)N(C)C)cc1 (single isomer, unassigned) [Compound A-892] | 8010 to 9990 nM | 
30 | C[C@@H]1CN(CC2CCN(c3c(F)cccc3[C@H](C)S(=O)(=O)c3ccc(S(=N)(=O)N(C)C)cc3)CC2)C[C@H](C)O1 (single isomer, unassigned) [Compound A-931] | ≤ 2000 nM | 
31 | CN(C)S(=O)(=O)c1ccc(S(=O)(=O)n2nc(C3CCN(c4c(F)cccc4F)CC3)c3c2CCNC3)cc1 [Compound A-533, 4-({3-[1-(2,6-difluorophenyl)piperidin-4-yl]-1H,4H,5H,6H,7H-pyrazolo[4,3-c]pyridin-1-yl}sulfonyl)-N,N-dimethylbenzene-1-sulfonamide] | 2010 to 8000 nM | 
32 | CN(C)S(=O)(=O)c1ccc(S(=O)(=O)Nc2cccc(F)c2N2CCC(CN3CC4C(C3)C4(F)F)CC2)cc1 (stereo not drawn) [Compound A-883, N4-{2-[4-({6,6-difluoro-3-azabicyclo[3.1.0]hexan-3-yl}methyl)piperidin-1-yl]-3-fluorophenyl}-N1,N1-dimethylbenzene-1,4-disulfonamide] | ≤ 2000 nM | 
33 | COc1ccc(S(=O)(=O)Nc2ccccc2-c2ccc(F)cc2F)cc1 [Compound A-167, N-(2′,4′-difluoro-[1,1′-biphenyl]-2-yl)-4-methoxybenzenesulfonamide] | 2010 to 8000 nM | 
